From ChEMBL document CHEMBL1141372, “Synthesis and pharmacophore modeling of naphthoquinone derivatives with cytotoxic activity in human promyelocytic leukemia HL-60 cell line” (J Med Chem, 2007)
pIC50: −log10 of the molar value.

How the values were obtained:
[1] = Partition coefficient, log P of the compound; format: physicochemical; conditions: octanol/water
[2] = system: HL-60; assay: Cytotoxicity against human promyelocytic leukemia HL60 cell line by MTT assay; format: cell-based

| Structure (SMILES) | logP ([1]; read-out: LogP) | logP [1] | pIC50 [2] |
| --- | --- | --- | --- |
| CC(=O)OC1CC2=C(OC1(C)C)c1ccccc1C(=O)C2=O (configuration not stated) | 3 |  | 6.17 |
| CC1(C)OC2=C(CC1Br)C(=O)C(=O)c1ccccc12 (configuration not stated) | 3.6 |  | 6.89 |
| CC1(C)OC2=C(C=C1Br)C(=O)C(=O)c1ccccc12 | 3.5 |  | 6.70 |
| CC1(C)Oc2c(c3nccnc3c3ccccc23)CC1O (configuration not stated) | 3.2 |  | 4.55 |
| CC1(C)OC2=C(C(=O)C(=O)c3ccccc32)C(O)C1Br (configuration not stated) | 3.1 |  | 6.92 |
| CC1(C)C[C@H](O)C2=C(O1)c1ccccc1C(=O)C2=O | 2.2 |  | 6.24 |
| CO[C@@H](C(=O)O[C@@H]1CC2=C(OC1(C)C)c1ccccc1C(=O)C2=O)c1ccccc1 | 5 |  | 6.59 |
| CC(C)=CCC1=C(O[Si](C)(C)C(C)(C)C)C(=O)c2ccccc2C1=O | 7.3 |  | 4.94 |
| CC1(C)Oc2c(c3nc4c(nc3c3ccccc23)CCCC4)CC1O (configuration not stated) | 4.8 |  | 4.87 |
| CC1(C)OC2=C(CC1Br)C(=O)c1ccccc1C2=O (configuration not stated) | 4.1 |  | 5.87 |
| COc1cc(C(=O)OC2=C(CC=C(C)C)C(=O)c3ccccc3C2=O)cc(OC)c1OC | 6.3 |  | 5.09 |
| CC(=O)OC1=C(CC(O)C(C)(C)O)C(=O)c2ccccc2C1=O (configuration not stated) | 1.8 |  | 4.32 |
| CC(=O)OC1=C(CC2OC2(C)C)C(=O)c2ccccc2C1=O (configuration not stated) | 3 |  | 5.72 |
| CC1(C)Oc2c(c3nccnc3c3ccccc23)CC1Br (configuration not stated) | 4.8 |  | 4.62 |
| CC(C)(O)C1Cc2c(c3ccccc3c3nccnc23)O1 (configuration not stated) | 2.5 |  | 4.36 |
| CC(=O)OC1=C(CC(Br)C(C)(C)Br)C(=O)c2ccccc2C1=O (configuration not stated) | 5.1 |  | 5.65 |
| CC1(C)CCc2c(c3ccccc3c3nc4c(nc23)CCCC4)O1 | 6.4 |  | ≤ 4.00 |

| Structure (SMILES) | logP ([1]; read-out: LogP) | logP [1] | pIC50 [2] |
| --- | --- | --- | --- |
| CO[C@@H](C(=O)O[C@H]1CC2=C(OC1(C)C)c1ccccc1C(=O)C2=O)c1ccccc1 | 5 |  | 6.96 |
| CC(C)(O)C1CC(=O)c2nccnc2-c2ccccc2C(=O)O1 (configuration not stated) | 2.4 |  | < 4.00 |
| CC1(C)CCC(=O)c2nccnc2-c2ccccc2C(=O)O1 | 3.9 |  | 4.33 |
| O=C1C2=C(OC(c3ccccc3)C2)C(=O)c2ccccc21 (configuration not stated) | 3.7 |  | 5.58 |
| CC1(C)CCC2=C(O1)c1ccccc1/C(=N/O)C2=O | 4.6 |  | 5.49 |
| O=C1C2=C(OC(c3ccccc3)CC2)C(=O)c2ccccc21 (configuration not stated) | 4.7 |  | 4.64 |
| CC(C)(O)C1Cc2c(O)c([N+](=O)[O-])c3ccccc3c2O1 (configuration not stated) | 2.7 |  | 4.33 |
| CC(C)(O[N+](=O)[O-])C1CC2=C(O1)C(=O)c1ccccc1C2=O (configuration not stated) | 3.4 |  | 5.91 |
| CC(=O)OC1=C(CC(Br)C(C)(C)O)C(=O)c2ccccc2C1=O (configuration not stated) | 3.5 |  | 6.28 |
| CCCCCCCCCCCC(=O)OC1=C(CC=C(C)C)C(=O)c2ccccc2C1=O |  | 9.9 | 4.58 |
| CC(=O)OC1Cc2c(c3ccccc3c3nc4c(nc23)CCCC4)OC1(C)C (configuration not stated) | 5.7 |  | 4.62 |
| CC(C)(O)C1Cc2c(c3ccccc3c3nc4c(nc23)CCCC4)O1 (configuration not stated) | 4.2 |  | 4.50 |
| CCCCCCCCCCCC(=O)OC1CC2=C(OC1(C)C)c1ccccc1C(=O)C2=O (configuration not stated) | 8.3 |  | 6.59 |
| CC1(C)CCc2c(c3ccccc3c3nccnc23)O1 | 4.7 |  | 4.63 |
| CC1(C)OC2=C(CC1OC(=O)c1ccc(C#N)cc1)C(=O)C(=O)c1ccccc12 (racemic) | 4.7 |  | 6.89 |
| CC1(C)OC2=C(CC1OC(=O)c1ccc(Br)cc1)C(=O)C(=O)c1ccccc12 (racemic) | 5.8 |  | 6.35 |
| CC(C)=CCC1=C(O)C(=O)c2ccccc2C1=O [LAPACHOL] | 4.1 |  | 5.50 |

Second part, led by results:

| logP ([1]; read-out: LogP) | logP [1] | Structure (SMILES) | pIC50 [2] |
| --- | --- | --- | --- |
| 4.1 |  | CC(C)CCC1=C(O)C(=O)c2ccccc2C1=O | 4.21 |
| 2.7 |  | CC1(C)OC2=C(CC1O)C(=O)c1ccccc1C2=O (configuration not stated) | 5.87 |
| 1.6 |  | CC(C)(O)C1CC2=C(O1)c1ccccc1C(=O)C2=O (configuration not stated) | 5.71 |
| 4.5 |  | CC(=O)OC1=C(CC=C(C)C)C(=O)c2ccccc2C1=O | 5.35 |
| 4.2 |  | CC(C)CCC1=C(O)C(=O)C2=C(CCCC2)C1=O | 4.46 |
| 4.4 |  | COCOC1=C(CCC(C)C)C(=O)c2ccccc2C1=O | 4.27 |
| 4.2 |  | CC(C)=CCC1=C2NC3CCCCC3N=C2c2ccccc2C1=O (configuration not stated) | 4.81 |
| 2.8 |  | CCOC1CCC2=C(O1)C(=O)c1ccccc1C2=O (configuration not stated) | 4.53 |
| 3.8 |  | CC(C)C(=O)OC1CC2=C(OC1(C)C)c1ccccc1C(=O)C2=O (configuration not stated) | 6.62 |
| 3.6 |  | Cc1ccc(CC2=C(O)C(=O)c3ccccc3C2=O)o1 | 4.17 |
| 3.2 |  | CC(C)=CC1=C(O)C(=O)c2ccccc2C1=O | 4.56 |
| 2 |  | CC(C)(O)C1CC2=C(O1)C(=O)c1ccccc1C2=O (configuration not stated) | 5.73 |
| 2.2 |  | CC1(C)C[C@@H](O)C2=C(O1)c1ccccc1C(=O)C2=O | 6.26 |
| 3.2 |  | CC(C)(Br)C1CC2=C(O1)c1ccccc1C(=O)C2=O (configuration not stated) | 6.15 |
| 3.5 |  | CC1(C)CCC2=C(O1)C(=O)c1ccccc1C2=O [ALPHA-LAPACHONE] | 4.87 |
| 3.4 |  | C=C(C)C1CC2=C(O1)C(=O)c1ccccc1C2=O (stereo not drawn) [DEHYDROISO-ALPHA-LAPACHONE] | 5.84 |
| 3.2 |  | CC1(C)CCC2=C(O1)c1ccccc1C(=O)C2=O [LAPACHONE] | 6.57 |
